In PubChem BioAssay (NCI):
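Test compounds were applied to cells in 96-well plates for 48 hours at 5 doses. Abbreviation: GI50, concentration required for 50% inhibition of growth. The concentration for full growth arrest is given as TGI.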

Experiments:
Assay in all cases: NCI anticancer screen, dose series, 48 h
[1] = test system: RPMI-8226 leukemia
[2] = test system: UO-31 renal
[3] = test system: KM12 colon
[4] = test system: HL-60(TB) leukemia
[5] = test system: HS 578T breast
[6] = test system: LOX IMVI melanoma
[7] = test system: COLO 205 colon
[8] = test system: OVCAR-5 ovarian
[9] = test system: NCI-H226 lung
[10] = test system: MCF7 breast

| SMILES | TGI [1] [µM] | TGI [2] [µM] | TGI [3] [µM] | TGI [4] [µM] | TGI [5] [µM] | TGI [6] [µM] | TGI [7] [µM] | TGI [8] [µM] | TGI [9] [µM] | TGI [10] [µM] | GI50 [1] [µM] | GI50 [2] [µM] | GI50 [3] [µM] | GI50 [4] [µM] | GI50 [5] [µM] | GI50 [6] [µM] | GI50 [7] [µM] | GI50 [8] [µM] | GI50 [9] [µM] | GI50 [10] [µM] |
| --- | --- | --- | --- | --- | --- | --- | --- | --- | --- | --- | --- | --- | --- | --- | --- | --- | --- | --- | --- | --- |
| Cc1c2ncccc2cc2oc3ccccc3c(=O)c12 | > 100 | > 100 | > 100 | > 100 | > 100 | > 100 | > 100 | 59.7 | > 100 | > 100 | – | – | – | – | – | – | – | – | – | – |
| CCOc1cc(-c2nc3ccccn3c2/N=C/c2cc(Br)ccc2O)ccc1O | > 100 | 84.6 | – | > 100 | > 100 | > 100 | > 100 | > 100 | > 100 | 43.6 | – | – | – | – | – | – | – | – | – | – |
| Cc1nn(-c2cc(Cl)ccc2[N+](=O)[O-])c(C)c1Cl | > 100 | > 100 | > 100 | > 100 | > 100 | > 100 | > 100 | > 100 | > 100 | > 100 | – | – | – | – | – | – | – | – | – | – |
| O=c1c2ccccc2nc(Nc2cccc(Cl)c2)n1/N=C/C=C/c1ccccc1 | > 100 | > 100 | > 100 | > 100 | > 100 | > 100 | > 100 | > 100 | > 100 | 74.7 | – | – | – | – | – | – | – | – | – | – |
| N#Cc1cc2c(cc1Cl)Sc1nccn1S2(=O)=O | 20.8 | 10.7 | 20.7 | 16.6 | 8.37 | 3.19 | 31.5 | 27.4 | 18 | > 23.4 | – | – | – | – | – | – | – | – | – | – |
| CCOC(=O)C(CC#Cc1ccc(C#CCC(NC(C)=O)C(=O)OCC)cc1)NC(C)=O (centres undefined) | > 100 | > 100 | > 100 | > 100 | > 100 | > 100 | > 100 | > 100 | > 100 | > 100 | – | – | – | – | – | – | – | – | – | – |
| COC(=O)c1ccc(C=Nc2ccc(S(N)(=O)=O)cc2)cc1 | 86.2 | > 100 | > 100 | > 100 | > 100 | > 100 | > 100 | > 100 | > 100 | > 100 | – | – | – | – | – | – | – | – | – | – |
| CCOC(=O)C(NC(=O)CC(C)C)(N1CCN(c2cc3c(cc2F)c(=O)c(C(=O)O)cn3C2CC2)CC1)C(F)(F)F (centres undefined) | 78.6 | 49.6 | 39.4 | 26 | 57.8 | 35.5 | 30.3 | 32.8 | 46.3 | 68.4 | – | – | – | – | – | – | – | – | – | – |
| C=c1c(OC)c(OC)c(O)c2c1=c1cc([N+](=O)[O-])cc(OC)c1=N2 | > 100 | > 100 | > 100 | > 100 | > 100 | > 100 | > 100 | > 100 | > 100 | > 100 | – | – | – | – | – | – | – | – | – | – |
| Cn1c2ccccc2n2c(=O)c3cc([N+](=O)[O-])ccc3c(C#N)c12 | > 100 | > 100 | > 100 | > 100 | > 100 | > 100 | > 100 | > 100 | > 100 | > 100 | – | – | – | – | – | – | – | – | – | – |
| CC1CC(=O)Nc2nc3ccccc3n21 (centres undefined) | > 100 | > 100 | > 100 | > 100 | > 100 | > 100 | > 100 | > 100 | > 100 | > 100 | – | – | – | – | – | – | – | – | – | – |
| NC(=O)C(=CNC(=S)c1ccncc1)C(N)=O | > 100 | > 100 | > 100 | > 100 | > 100 | > 100 | > 100 | > 100 | > 100 | > 100 | – | – | – | – | – | – | – | – | – | – |
| CC1(CNCc2ccccc2)CC(CCc2ccccc2)N(C(=O)c2ccc([N+](=O)[O-])cc2)C1Cc1ccc(O)cc1 (centres undefined) | > 100 | 23.3 | 36.2 | 54.4 | 46.8 | 26.2 | 19.4 | 34 | 24.1 | 19.2 | – | – | – | – | – | – | – | – | – | – |
| COc1cc(I)c2c3c1OC1C34CCN(C)C(C2)C4=CC(I)C1(OC)OC (centres undefined) | 49.7 | 34.7 | 40 | 47.3 | > 100 | 42.3 | 45.2 | 81.6 | 70.5 | 64.3 | – | – | – | – | – | – | – | – | – | – |
| COCc1nc2c(OC)cc(-c3nc4ccc(N5CCN(C)CC5)cc4[nH]3)c(OC)c2[nH]1 | > 100 | > 100 | > 100 | > 100 | > 100 | 34.8 | 77 | > 100 | > 100 | > 100 | – | – | – | – | – | – | – | – | – | – |
| Brc1ccc2c(-c3csc(-c4c[nH]c5cc(Br)ccc45)n3)c[nH]c2c1 | > 100 | > 100 | 25.1 | > 100 | 87.1 | > 57.1 | > 100 | > 90.2 | 99.7 | > 100 | – | – | – | – | – | – | – | – | – | – |
| CCCCc1ccc(Nc2nc3c(ncn3COCCO)c(=O)[nH]2)cc1 | > 100 | > 100 | > 100 | > 100 | > 100 | > 100 | > 100 | > 100 | > 100 | > 100 | – | – | – | – | – | – | – | – | – | – |

| SMILES | TGI [1] [µM] | TGI [2] [µM] | TGI [3] [µM] | TGI [4] [µM] | TGI [5] [µM] | TGI [6] [µM] | TGI [7] [µM] | TGI [8] [µM] | TGI [9] [µM] | TGI [10] [µM] | GI50 [1] [µM] | GI50 [2] [µM] | GI50 [3] [µM] | GI50 [4] [µM] | GI50 [5] [µM] | GI50 [6] [µM] | GI50 [7] [µM] | GI50 [8] [µM] | GI50 [9] [µM] | GI50 [10] [µM] |
| --- | --- | --- | --- | --- | --- | --- | --- | --- | --- | --- | --- | --- | --- | --- | --- | --- | --- | --- | --- | --- |
| O=C(Nc1ccccc1C(=O)NCCCO)/C(=C/c1ccccc1O)NC(=O)c1ccccc1 | > 100 | > 31.6 | > 100 | > 100 | 77.6 | > 100 | > 100 | > 100 | > 100 | > 100 | – | – | – | – | – | – | – | – | – | – |
| Brc1cc2nn(-c3ccccc3)nc2c2nonc12 | > 100 | > 100 | > 100 | > 100 | > 100 | > 100 | > 100 | > 100 | > 100 | > 100 | – | – | – | – | – | – | – | – | – | – |
| Brc1cccc(N=NN2CCCC2)c1 | 58.8 | > 100 | > 100 | > 100 | > 100 | > 100 | > 100 | > 100 | > 100 | > 100 | – | – | – | – | – | – | – | – | – | – |
| Cn1c([O-])nc(-n2cc[n+](C)c2)cc1=O | > 100 | > 100 | > 100 | > 100 | > 100 | > 100 | > 100 | > 100 | > 100 | > 100 | – | – | – | – | – | – | – | – | – | – |
| COc1ccc2cc(NC(=O)N/N=C\c3ccc(Cl)cc3)ccc2c1 | > 100 | > 100 | > 100 | > 100 | 68.8 | > 100 | > 100 | > 100 | > 100 | > 100 | – | – | – | – | – | – | – | – | – | – |
| COc1ccc2c(c1)CN1C(=N2)CSC1c1ccccc1Cl (centres undefined) | 29.9 | 38.3 | 34.8 | 24.9 | 82.5 | 28.9 | 28.3 | 46.8 | 31.3 | > 100 | – | – | – | – | – | – | – | – | – | – |
| Brc1ccc2c(-c3csc(-c4c[nH]c5ccc(Br)cc45)n3)c[nH]c2c1 | > 21.4 | 14.4 | 6.4 | 19.7 | > 51.3 | 4.16 | > 26.7 | 7.54 | 32.1 | > 100 | – | – | – | – | – | – | – | – | – | – |
| NC(N)=NS(=O)(=O)c1ccc(NC(=O)c2ccc3nc4ccccc4c(Nc4ccc(S(=O)(=O)N=C(N)N)cc4)c3c2)cc1 | > 100 | > 100 | > 100 | > 100 | > 100 | > 100 | > 100 | > 100 | > 100 | > 100 | – | – | – | – | – | – | – | – | – | – |
| CC1S/C(=N/c2nnc(-c3ccccc3)o2)NC1=O (centres undefined) | > 100 | > 100 | > 100 | > 100 | > 100 | > 100 | > 100 | > 100 | > 100 | > 100 | – | – | – | – | – | – | – | – | – | – |
| N#Cc1c(-c2ccc(F)cc2)nc(N/N=C/c2c[nH]c3ccccc23)nc1N1CCOCC1 | > 100 | 55.2 | 68.9 | 7.57 | 32.5 | 11.2 | 18.2 | 74 | 88 | 57.4 | 3.35 | 1.76 | 4.96 | 0.563 | 3.62 | 3.33 | 2.37 | 19.5 | 24.2 | 4.56 |
| Nc1ccc(S(=O)(=O)Nc2nc3ccccc3nc2N2CCCCC2)cc1 | > 100 | 55.1 | > 100 | > 100 | > 100 | > 100 | > 100 | > 100 | > 100 | > 100 | – | – | – | – | – | – | – | – | – | – |
| COc1cc(CN2CCCCC2)cc2cc(C(=O)O)c(=O)oc12 | > 100 | > 100 | > 100 | > 100 | > 100 | > 100 | > 100 | > 100 | > 100 | > 100 | – | – | – | – | – | – | – | – | – | – |
| CC(C)(C)c1cc(/C=C(\C#N)C(=O)NCCO)cc(C(C)(C)C)c1O | 35.6 | 49.7 | 52.7 | 36.9 | > 100 | 53.9 | 37.2 | 62.8 | 40.7 | 93.5 | – | – | – | – | – | – | – | – | – | – |
| CC1(C)C=C(S(=O)(=O)c2ccccc2)Oc2ccccc2O1 | > 100 | 86.2 | > 100 | 46.2 | > 100 | 57.6 | 35.1 | > 100 | > 100 | > 100 | – | – | – | – | – | – | – | – | – | – |
| C=C1C(=O)O[C@@]23C1CC[C@@H](C)C2CC[C@@]1(C)OC31 (some centres undefined) | 16.8 | 18.5 | 45.7 | 10.6 | 46.5 | 26.6 | 3.68 | 26.7 | 47.9 | 24.9 | – | – | – | – | – | – | – | – | – | – |
| O=C1CSC(c2cccs2)N1c1nc2cc3sc(N4C(=O)CSC4c4cccs4)nc3cc2s1 (centres undefined) | > 50 | > 50 | > 50 | > 50 | > 50 | > 50 | 3.18 | > 50 | 26.8 | > 50 | – | – | – | – | – | – | – | – | – | – |
| COc1c(C)c2nc3ccccc3[nH]c2c2c(=O)ccnc12 | > 100 | > 100 | > 100 | > 100 | 78.7 | > 100 | > 100 | > 100 | > 100 | > 100 | – | – | – | – | – | – | – | – | – | – |
